The test system of series [1] is influx of neutrophils to the lung in LPS-challenged rats. Nature of the series: Rat LPS neutrophilia model. It counts as in vivo. The conditions noted are these: LPS aerosol 100 ug/ml 15 min, lavage 4 hours later; in at least one of the range of conditions tested. As to the method: The effect of compounds on the influx of neutrophils to the lung in LPS-challenged rats is evaluated as follows. The test compound is suspended in one of the following solutions: 0.5% tween 80/PBS, 0.5% tween 80/saline, 10% EtOH/saline (with pH adjusted to 2.0, or 8.0 with HCl, or unadjusted), Saline @ pH 2.0, 6.5 or 8.0, 0.5% Tragacanth, 1% DMSO/20% Encapsin/Saline, or acidified 5% Tragacanth. The suspension process may be aided by the use of a glass homogenizer. For intratracheal administration, the animals are anesthetized with inhaled isoflurane and placed in a supine position, the trachea is intubated with a steel gavage needle (1.5 inch, 22 gauge, small ball) or a Penn-Century Microsprayer Aerosolizer (model IA-IB) and 200 ul of dosing solution is delivered. The animals are visually monitored during the recovery process, which typically occurs within two minutes.
Rats treated with compound or vehicle (15 min-24 hours pretreatment) are exposed to an LPS aerosol (100 ug/ml) for 15 min. Four hours later the rats are euthanized with pentobarbital (100 mg/kg, i.p.) and the airways are lavaged with 5 washes of 5 ml of phosphate buffered saline. The harvested cells are stained (Diffquick) and counted to determine total and differential cell data. In a typical study, macrophages represent 40-70% of the total cells, and polymorphonuclear cells 30-60% of the total cells. Inhibition of neutrophil levels relative to no compound controls is calculated based on the differential counts.
The assay has varying conditions, such as concentration, pretreat time, form of the compound (crystalline, amorphous, salts, micronised), and a wet or dry application of the compound. The data is obtained as % inhibition using a particular concentration and pretreat time.

For orientation: melting point means the temperature, or range, at which the solid turns liquid.

For `Cc1ccc(C(=O)Nc2ccc(C)c(-c3nc(NC4CC(C)(C)NC(C)(C)C4)nc4c3CNC(=O)N4c3c(F)cccc3F)c2)cc1F` [23(e), N-(3-{8-(2,6-difluorophenyl)-7-oxo-2-[(2,2,6,6-tetramethyl-4-piperidinyl)amino]-5,6,7,8-tetrahydropyrimido[4,5-d]pyrimidin-4-yl}-4-methylphenyl)-3-fluoro-4-methylbenzamide], the melting point was 220 °C (dec.). The inhibition of neutrophilia result in series [1] is given as “statistically nonsignificant inhibition”.

As for `Cc1ccc(NC(=O)c2ccsc2)cc1-c1nc(N2CCC(N)CC2)nc2c1CNC(=O)N2c1c(F)cccc1F` [Example 11, N-{3-[2-(4-amino-1-piperidinyl)-8-(2,6-difluorophenyl)-7-oxo-5,6,7,8-tetrahydropyrimido[4,5-d]pyrimidin-4-yl]-4-methylphenyl}-3-thiophenecarboxamide], the melting point is 250 to 261 °C (dec.). Further, the inhibition of neutrophilia result in series [1] is reported as “statistically significant inhibition”.

Molecule `Cc1ccc(C(=O)NCc2ccccc2)cc1-c1nc(N(C)CCCN(C)C)nc2c1CNC(=O)N2c1c(F)cccc1F` [Example 17, 3-{8-(2,6-Difluorophenyl)-2-[[3-(dimethylamino)propyl](methyl)amino]-7-oxo-5,6,7,8-tetrahydropyrimido[4,5-d]pyrimidin-4-yl}-4-methyl-N-(phenylmethyl)benzamide] yielded a melting point of 124 to 127 °C. Further, the inhibition of neutrophilia result in series [1] is reported as “statistically nonsignificant inhibition”.

In the case of `Cc1ccc(C(=O)Nc2ccc(C)c(-c3nc(N4CCC(N)CC4)nc4c3CNC(=O)N4c3c(F)cccc3F)c2)cc1F` [Example 24, N-{3-[2-(4-amino-1-piperidinyl)-8-(2,6-difluorophenyl)-7-oxo-5,6,7,8-tetrahydropyrimido[4,5-d]pyrimidin-4-yl]-4-methylphenyl}-3-fluoro-4-methylbenzamide], the melting point is 240 °C. Besides, the inhibition of neutrophilia result in series [1] is listed as “statistically nonsignificant inhibition”.

`Cc1ccc(C(=O)Nc2ccc(C)c(-c3nc(OC(C)C)nc4c3CNC(=O)N4c3c(F)cccc3F)c2)cc1F` [Example 26, N-(3-{8-(2,6-difluorophenyl)-2-[(1-methylethyl)oxy]-7-oxo-5,6,7,8-tetrahydropyrimido[4,5-d]pyrimidin-4-yl}-4-methylphenyl)-3-fluoro-4-methylbenzamide] came in with a melting point of 253.5 to 255.4 °C. For the same molecule, the inhibition of neutrophilia entry in series [1] is “inactive”.

On to `Cc1ccc(C(=O)Nc2ccc(C)c(-c3nc(N(C)C)nc4c3CNC(=O)N4c3c(F)cccc3F)c2)cc1F` [Example 28, N-{3-[8-(2,6-difluorophenyl)-2-(dimethylamino)-7-oxo-5,6,7,8-tetrahydropyrimido[4,5-d]pyrimidin-4-yl]-4-methylphenyl}-3-fluoro-4-methylbenzamide], for which the melting point was in the range of 257.8 to 264.3 °C. For the same molecule, the inhibition of neutrophilia entry in series [1] is “statistically nonsignificant inhibition”.

In turn, `Cc1ccc(C(=O)NCc2ccccc2)cc1-c1nc(N2CCN(C)CC2)nc2c1CNC(=O)N2c1c(F)cccc1F` [Example 148, 3-[8-(2,6-difluorophenyl)-2-(4-methyl-1-piperazinyl)-7-oxo-5,6,7,8-tetrahydropyrimido[4,5-d]pyrimidin-4-yl]-4-methyl-N-(phenylmethyl)benzamide] yielded a melting point of 164 to 168 °C. In series [1], the inhibition of neutrophilia entry is “statistically nonsignificant inhibition”.

As for `Cc1ccc(C(=O)NCc2ccccc2)cc1-c1nc(NCCCN(C)C)nc2c1CNC(=O)N2c1c(F)cccc1F` [Example 151, 3-(8-(2,6-difluorophenyl)-2-{[3-(dimethylamino)propyl]amino}-7-oxo-5,6,7,8-tetrahydropyrimido[4,5-d]pyrimidin-4-yl)-4-methyl-N-(phenylmethyl)benzamide], the melting point was 141 to 144 °C. In series [1], the inhibition of neutrophilia result is “statistically nonsignificant inhibition”.

Take `CNC(=O)c1ccc(C)c(-c2nc(NCCN(C)C)nc3c2CNC(=O)N3c2c(F)cccc2F)c1` [Example 163(c), 3-(8-(2,6-difluorophenyl)-2-{[2-(dimethylamino)ethyl]amino}-7-oxo-5,6,7,8-tetrahydropyrimido[4,5-d]pyrimidin-4-yl)-N,4-dimethylbenzamide]: the melting point was 155 to 158 °C (dec.).

Turning to `CNC(=O)c1ccc(C)c(-c2nc(NCCCN(C)C)nc3c2CNC(=O)N3c2c(F)cccc2F)c1` [Example 166, 3-(8-(2,6-difluorophenyl)-2-{[3-(dimethylamino)propyl]amino}-7-oxo-5,6,7,8-tetrahydropyrimido[4,5-d]pyrimidin-4-yl)-N,4-dimethylbenzamide], the melting point was 164 to 167 °C (dec.). Besides, the inhibition of neutrophilia result in series [1] is “statistically nonsignificant inhibition”.

In the case of `CNC(=O)c1ccc(C)c(-c2nc(NCCNC(C)C)nc3c2CNC(=O)N3c2c(F)cccc2F)c1` [Example 167, 3-[8-(2,6-difluorophenyl)-2-({2-[(1-methylethyl)amino]ethyl}amino)-7-oxo-5,6,7,8-tetrahydropyrimido[4,5-d]pyrimidin-4-yl]-N,4-dimethylbenzamide], the melting point is 136 to 139 °C (dec.).

As to `CNC(=O)c1ccc(C)c(-c2nc(NCCCNC(C)C)nc3c2CNC(=O)N3c2c(F)cccc2F)c1` [Example 168, 3-[8-(2,6-difluorophenyl)-2-({3-[(1-methylethyl)amino]propyl}amino)-7-oxo-5,6,7,8-tetrahydropyrimido[4,5-d]pyrimidin-4-yl]-N,4-dimethylbenzamide], the melting point is 153 to 157 °C (dec.).

Consider `CNC(=O)c1ccc(C)c(-c2nc(N3CCN(C)CC3)nc3c2CNC(=O)N3c2c(F)cccc2F)c1` [Example 169, 3-[8-(2,6-difluorophenyl)-2-(4-methyl-1-piperazinyl)-7-oxo-5,6,7,8-tetrahydropyrimido[4,5-d]pyrimidin-4-yl]-N,4-dimethylbenzamide], for which the melting point was 164 to 168 °C (dec.).

As for `CNC(=O)c1ccc(C)c(-c2nc(NCCCNC(C)(C)C)nc3c2CNC(=O)N3c2c(F)cccc2F)c1` [Example 170, 3-[8-(2,6-difluorophenyl)-2-({3-[(1,1-dimethylethyl)amino]propyl}amino)-7-oxo-5,6,7,8-tetrahydropyrimido[4,5-d]pyrimidin-4-yl]-N,4-dimethylbenzamide], the melting point was 166 to 170 °C (dec.).

Molecule `CCCCN(CCCC)CCCNc1nc(-c2cc(C(=O)NC)ccc2C)c2c(n1)N(c1c(F)cccc1F)C(=O)NC2` [Example 171, 3-[2-{[3-(dibutylamino)propyl]amino}-8-(2,6-difluorophenyl)-7-oxo-5,6,7,8-tetrahydropyrimido[4,5-d]pyrimidin-4-yl]-N,4-dimethylbenzamide] returned a melting point of 112 to 115 °C.

On to `CNC(=O)c1ccc(C)c(-c2nc(NC3CCN(C)CC3)nc3c2CNC(=O)N3c2c(F)cccc2F)c1` [Example 173, 3-{8-(2,6-difluorophenyl)-2-[(1-methyl-4-piperidinyl)amino]-7-oxo-5,6,7,8-tetrahydropyrimido[4,5-d]pyrimidin-4-yl}-N,4-dimethylbenzamide], for which the melting point is 205 to 209 °C (dec.).
